Reference: ChEMBL document CHEMBL1201862, “PubChem BioAssay data set” (2004)
Calls of active or inactive are those of the source.

What was measured:
[1] = target: Eukaryotic translation initiation factor 4E (Mus musculus, UniProt P63073); assay: eIF4E–eIF4G protein interaction inhibitors, dose response, biochemical, TR-FRET (AID 855); format: functional;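 further: potency for disrupting eIF4E binding to eIF4GI seen as loss of FRET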
[2] = target: T1, Carboxy-terminal domain RNA polymerase II polypeptide A small phosphatase 1 (Homo sapiens, UniProt Q9GZU7); assay: inhibitors of CTDSP1, concentration-response testing, biochemical assay, absorbance-based, actives from ultra-high-throughput screening (AID 540297); format: functional
T1 sequence (Q9GZU7 whole entry): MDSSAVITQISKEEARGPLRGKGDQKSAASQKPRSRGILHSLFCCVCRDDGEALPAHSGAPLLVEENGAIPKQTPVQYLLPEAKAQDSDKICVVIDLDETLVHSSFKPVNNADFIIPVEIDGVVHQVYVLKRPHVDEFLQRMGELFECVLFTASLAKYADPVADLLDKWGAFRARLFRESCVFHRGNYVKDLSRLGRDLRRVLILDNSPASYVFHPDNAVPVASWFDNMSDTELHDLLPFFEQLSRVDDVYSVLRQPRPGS

Estrogen receptor = target: T2, Estrogen receptor (Homo sapiens, UniProt P03372);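 further: potency for inhibiting coactivator peptide recruitment to the receptor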
T2 sequence (P03372 whole entry): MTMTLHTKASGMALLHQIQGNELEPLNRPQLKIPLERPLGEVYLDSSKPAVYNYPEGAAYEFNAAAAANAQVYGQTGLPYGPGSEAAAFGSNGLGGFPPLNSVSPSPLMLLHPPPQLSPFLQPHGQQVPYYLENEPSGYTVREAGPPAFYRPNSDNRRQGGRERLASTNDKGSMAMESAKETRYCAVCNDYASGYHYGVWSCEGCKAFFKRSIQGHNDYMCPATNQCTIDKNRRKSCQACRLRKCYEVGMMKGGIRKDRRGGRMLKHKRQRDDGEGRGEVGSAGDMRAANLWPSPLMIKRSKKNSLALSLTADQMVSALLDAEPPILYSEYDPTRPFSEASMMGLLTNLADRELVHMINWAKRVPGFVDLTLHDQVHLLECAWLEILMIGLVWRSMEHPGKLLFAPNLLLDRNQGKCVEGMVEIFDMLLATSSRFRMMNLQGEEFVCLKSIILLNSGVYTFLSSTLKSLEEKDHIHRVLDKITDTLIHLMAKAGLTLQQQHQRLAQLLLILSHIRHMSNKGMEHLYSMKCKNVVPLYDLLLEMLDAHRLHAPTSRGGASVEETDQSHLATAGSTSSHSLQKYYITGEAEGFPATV

Aminopeptidase N = target: T3, Aminopeptidase N (Plasmodium falciparum FcB1/Columbia, UniProt O96935); assay: P. falciparum M1AAP inhibitors, biochemical, fluorogenic H-Leu-NHMec substrate, 1536-well (AID 1445); set-up: species or system Plasmodium falciparum 3D7, 3D7
T3 sequence (O96935 whole entry): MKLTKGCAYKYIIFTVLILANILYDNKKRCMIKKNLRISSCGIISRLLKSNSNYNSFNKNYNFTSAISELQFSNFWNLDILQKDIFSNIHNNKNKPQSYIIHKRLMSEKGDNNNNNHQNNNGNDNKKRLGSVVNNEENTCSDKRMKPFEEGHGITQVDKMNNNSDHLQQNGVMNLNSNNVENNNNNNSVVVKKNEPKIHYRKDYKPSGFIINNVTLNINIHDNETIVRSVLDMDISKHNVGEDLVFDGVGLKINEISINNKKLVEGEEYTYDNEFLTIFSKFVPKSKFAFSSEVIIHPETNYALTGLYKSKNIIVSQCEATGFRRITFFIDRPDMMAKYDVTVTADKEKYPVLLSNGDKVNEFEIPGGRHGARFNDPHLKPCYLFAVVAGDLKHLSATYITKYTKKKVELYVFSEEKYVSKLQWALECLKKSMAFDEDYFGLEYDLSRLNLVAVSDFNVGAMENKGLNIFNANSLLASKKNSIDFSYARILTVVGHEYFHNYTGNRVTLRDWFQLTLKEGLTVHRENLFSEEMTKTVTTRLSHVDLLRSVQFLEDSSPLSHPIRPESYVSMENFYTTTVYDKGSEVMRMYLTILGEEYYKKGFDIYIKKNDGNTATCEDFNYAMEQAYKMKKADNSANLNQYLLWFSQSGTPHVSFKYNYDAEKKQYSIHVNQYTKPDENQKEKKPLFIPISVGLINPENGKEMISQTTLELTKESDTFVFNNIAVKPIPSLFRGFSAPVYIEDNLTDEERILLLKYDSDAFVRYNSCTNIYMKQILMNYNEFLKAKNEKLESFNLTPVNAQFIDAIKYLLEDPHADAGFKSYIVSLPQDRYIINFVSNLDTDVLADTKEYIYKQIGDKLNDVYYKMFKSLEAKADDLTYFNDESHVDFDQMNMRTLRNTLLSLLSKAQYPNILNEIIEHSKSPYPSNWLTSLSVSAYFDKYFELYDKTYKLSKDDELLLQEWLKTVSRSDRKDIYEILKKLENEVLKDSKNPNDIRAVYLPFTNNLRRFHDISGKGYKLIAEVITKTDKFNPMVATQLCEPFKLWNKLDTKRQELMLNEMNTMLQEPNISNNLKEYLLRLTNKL

[3] = A Cell Based Secondary Assay To Explore Cytotoxicity of Compounds that Sensitize Mycobacterium Tuberculosis to Beta-Lactam Antibiotics.; format: functional
[4] = inhibitors of HIV Env-driven cell fusion, dose response, cherry-pick (AID 652057); format: functional, cell-based
[5] = inhibitors of clade B AD8 Env fusion, dose response, cell-based, cherry-pick (AID 652062); format: functional;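 further: luciferase signal from cell-cell fusion driven by HIV-1 clade B AD8 Env; potency is for inhibitors of fusion seen as a drop in luminescence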
[6] = cytotoxicity in HEK-293T cells, dose response, cytotoxicity control for TCR NF-kB inhibitor project, luminescence, T-cell screen hits (AID 489026); format: functional, cell-based;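 further: cells exposed to compound about 14 hours before the viability readout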
[7] = HEp-2 cell cytotoxicity, dose response, cytotoxicity control for RSV inhibitor project, HTS (AID 2410); format: functional; details: human respiratory syncytial virus
[8] = cytotoxicity toward NIH3T3 fibroblasts, dose response, counter-screen, cell-based, ATP luminescence, mouse fibroblasts (AID 2010); format: functional;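 further: cells exposed to compound for about 90 hours before reading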
[9] = target: T4, Microphthalmia-associated transcription factor (Homo sapiens, UniProt O75030); assay: TRPM1 promoter luciferase signal decrease, dose response, MITF inhibitor project, cell-based, SK-MEL-5, cherry-picked, set 3 (AID 493073); format: functional
T4 sequence (O75030 whole entry): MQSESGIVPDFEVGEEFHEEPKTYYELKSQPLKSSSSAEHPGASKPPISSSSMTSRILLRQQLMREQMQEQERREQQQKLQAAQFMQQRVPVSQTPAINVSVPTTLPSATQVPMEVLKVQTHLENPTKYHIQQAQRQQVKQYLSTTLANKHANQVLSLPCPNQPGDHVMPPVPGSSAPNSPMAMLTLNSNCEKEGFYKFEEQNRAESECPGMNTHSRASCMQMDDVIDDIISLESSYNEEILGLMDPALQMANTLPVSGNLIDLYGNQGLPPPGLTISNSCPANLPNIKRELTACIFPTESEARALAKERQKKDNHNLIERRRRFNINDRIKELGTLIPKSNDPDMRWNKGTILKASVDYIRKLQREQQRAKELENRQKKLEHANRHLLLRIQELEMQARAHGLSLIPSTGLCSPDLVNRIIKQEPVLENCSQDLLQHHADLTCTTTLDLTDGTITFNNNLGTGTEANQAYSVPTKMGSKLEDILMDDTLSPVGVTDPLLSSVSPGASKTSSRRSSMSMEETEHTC

[10] = inhibitors of intracellular T. cruzi replication, confirmation, NIH3T3 host cells, beta-gal luminescence (AID 2044); format: functional, cell-based;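 further: intracellular parasites grown in NIH/3T3 mouse fibroblasts as host cells; luminescent beta-galactosidase reporter signal from transgenic T. cruzi replicating inside host cells; inhibitors lower the luminescence signal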
cells = format: functional
Nonstructural protein 1 = Nonstructural protein 1 (Influenza A virus, UniProt Q194T2); format: functional, Influenza A virus (A/California/07/2009(H1N1))
Nonstructural protein 1, sequence (Q194T2 whole entry): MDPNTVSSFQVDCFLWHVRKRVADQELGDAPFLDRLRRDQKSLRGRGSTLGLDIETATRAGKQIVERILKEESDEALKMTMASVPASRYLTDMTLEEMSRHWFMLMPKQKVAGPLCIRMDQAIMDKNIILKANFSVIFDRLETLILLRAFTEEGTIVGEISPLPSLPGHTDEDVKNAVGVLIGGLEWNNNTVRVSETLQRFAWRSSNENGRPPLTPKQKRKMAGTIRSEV

[11] = Luminescence Cell-Based Dose Retest to Confirm Inhibitors of Cancer Stem Cells. [Related pubchem assays (depositor defined):AID2717, AID2721]; format: functional; details: Homo sapiens
[12] = target: DNA dC->dU-editing enzyme APOBEC-3G (Homo sapiens, UniProt Q9HC16); assay: Dose Response confirmation of small molecule APOBEC3G DNA Deaminase Inhibitors via a fluorescence-based single-stranded DNA deaminase assay. [Related pubchem assays (depositor defined):AID493012, AID493028]; format: functional
DNA dC->dU-editing enzyme APOBEC-3G, sequence (Q9HC16 whole entry): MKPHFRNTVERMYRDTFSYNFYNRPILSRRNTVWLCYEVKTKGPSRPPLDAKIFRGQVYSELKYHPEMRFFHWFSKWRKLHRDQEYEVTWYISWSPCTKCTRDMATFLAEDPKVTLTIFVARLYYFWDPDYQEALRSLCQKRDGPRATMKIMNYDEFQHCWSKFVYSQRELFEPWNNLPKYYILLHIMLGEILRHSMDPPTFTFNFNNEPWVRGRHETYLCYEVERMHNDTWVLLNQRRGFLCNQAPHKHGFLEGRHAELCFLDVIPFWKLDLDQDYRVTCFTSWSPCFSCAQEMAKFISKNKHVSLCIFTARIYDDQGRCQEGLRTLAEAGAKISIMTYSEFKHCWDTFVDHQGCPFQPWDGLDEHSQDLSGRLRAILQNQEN

[13] = growth suppression of beta-catenin-knockout colon cells, dose response, cell-based, HCT116, human colon tumor (AID 1045); format: functional;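 further: HCT116 colon tumor cells with beta catenin knocked out; cells exposed to compound for 60 hours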
[14] = growth suppression of PTEN-null colon cells, dose response, cell-based, HCT116 PTEN knockout (AID 1047); format: functional;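 further: HCT116 colon tumor cells with PTEN knocked out; cells exposed to compound for 60 hours before readout; potency for loss of cell viability measured by luminescence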

Eukaryotic translation initiation factor 4E, sequence (P63073 whole entry, the tested form may be a part): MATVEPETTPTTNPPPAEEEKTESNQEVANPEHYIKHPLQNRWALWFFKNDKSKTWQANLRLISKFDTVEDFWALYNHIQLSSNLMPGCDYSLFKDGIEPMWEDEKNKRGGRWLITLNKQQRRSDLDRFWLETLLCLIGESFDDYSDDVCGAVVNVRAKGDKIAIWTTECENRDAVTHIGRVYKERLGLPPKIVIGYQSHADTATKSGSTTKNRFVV

## COc1ccc(C(=O)CN2C(=O)NC(C)(c3ccc(C)cc3)C2=O)cc1OC (configuration not stated)
[1]
  IC50: > 64 µM (inactive)

## COc1ccccc1-c1noc(-c2ccccc2)n1
[1]
  IC50: > 64 µM (inactive)

## N#C/C(=C\c1ccc(OC(=O)c2ccc(Br)s2)cc1)c1nc2ccccc2[nH]1
[1]
  IC50: > 64 µM (inactive)
[2]
  IC50: 1.78 µM (active)

## CC(=O)c1c(C)[nH]c(C(=O)COc2ccc(C#N)cc2)c1C
Estrogen receptor
  IC50: 34 µM (not active)

## Cc1ccc(S(=O)(=O)NNC2=NS(=O)(=O)c3ccccc32)c(C)c1
Aminopeptidase N
  IC50: 9.97 µM (active)

## CCN(CC)c1ccc(S(=O)(=O)N(CC)CC)cc1NC(=O)c1cccnc1
Aminopeptidase N
  IC50: 28.5 µM (active)

## COc1ccc(-c2nc(C(N)=O)c3[nH]c(=O)n(-c4cccc(Cl)c4)c3n2)cc1OC
Estrogen receptor
  IC50: 6.26 µM (active)

## CCSc1nc2ccccc2c(=O)n1CCc1ccc(OC)c(OC)c1
[3]
  CC50: > 40 µM (active)

## COc1ccc(OC2C(=O)N(Cc3ccc4c(c3)OCO4)C2c2cccs2)cc1 (configuration not stated)
[4]
  AC50: 53.1 µM (active)
[5]
  AC50: 1.71 µM (active)

## CCOC(=O)C(C)Oc1cccc2c(=O)n(CC(=O)NCc3ccco3)ccc12 (configuration not stated)
[6]
  IC50: > 80 µM (inactive)

## C[C@H]1CN([C@@H](C)CO)C(=O)c2ccccc2-c2ccccc2CO[C@H]1CN(C)S(=O)(=O)c1cccc(C#N)c1
[4]
  AC50: < 0.26 µM (active)
[5]
  AC50: 0.743 µM (active)

## COc1cc(CNc2ccc(NC(C)=O)cc2)ccc1OCc1ccccc1C
[3]
  CC50: > 40 µM (active)

## CC1CCN(c2c(NCC3CCC(C(=O)NCCc4ccc(Cl)cc4)CC3)c(=O)c2=O)CC1 (configuration not stated)
[7]
  CC50: > 50 µM (active)

## CCN(CC)S(=O)(=O)c1ccc(OC)c(NC(=O)Cc2cccs2)c1
[1]
  IC50: 50 µM (inactive)
[2]
  IC50: 4.5 µM (active)

## O=C(N/N=C/c1ccc([N+](=O)[O-])o1)c1ccccc1-n1cccc1
[8]
  EC50: > 60 µM (not active)
[9]
  AC50: 17.1 µM (active)
[10]
  EC50: 0.137 µM (active)
[3]
  CC50: 32.1 µM (active)

## Cc1ccc(CNc2nc3ccccc3n3nnnc23)cc1
Estrogen receptor
  IC50: > 50 µM (not active)

## Cc1ccc2nc(NS(C)(=O)=O)sc2c1
[7]
  CC50: 23 µM (active)

## COc1cc(NS(=O)(=O)c2ccc(NC(=S)NC(=O)c3cccs3)cc2)nc(OC)n1
Aminopeptidase N
  IC50: 38.9 µM (active)

## Cc1cccc(NC(=O)c2ccc(OC3CSC3)cc2)c1
cells
  IC50: 44 µM (active)

## C[C@H](NC(=O)c1ccccc1)C(=O)Nc1nc(-c2ccccn2)cs1
Nonstructural protein 1
  IC50: 16.3 µM (active)

## COc1cc2cnc(-c3ccsc3)c(-c3ccc(F)cc3)c2cc1OC
[3]
  CC50: > 40 µM (active)

## CN(C(=O)c1ccccc1OCc1ccc(Cl)cc1)c1ccccc1
[7]
  CC50: 25.7 µM (active)

## COc1cc(CNCCO)cc(Br)c1OCc1ccccc1Cl
[3]
  CC50: 20.3 µM (active)

## O=[N+]([O-])c1cc(/C=N/N=C(/Nc2ccccn2)c2ccccn2)ccc1O
Nonstructural protein 1
  IC50: 2.46 µM (active)

## NC(=O)CC(NC(=O)Cc1ccc(Br)cc1)c1ccc(NC2CCCCCC2)c([N+](=O)[O-])c1 (configuration not stated)
[11]
  AC50: 4.61 µM (active)
[3]
  CC50: > 40 µM (active)

## CCOc1ccc(NC(=O)c2cc3cc4ccc(OC)cc4nc3o2)cc1
Estrogen receptor
  IC50: 47.3 µM (not active)
[2]
  IC50: 6.92 µM (active)

## O=C1CCC(C(=O)Nc2cccc(S(=O)(=O)Nc3ccccc3F)c2)=NN1
[12]
  IC50: 24.6 µM (active)

## CN1/C(=C\C(=O)c2cccnc2)Sc2ccccc21
[7]
  CC50: 26.5 µM (active)

## CN=C(S)N=NC1=C(O)c2cccc3cccc1c23
[13]
  EC50: 10.5 µM (active)
[14]
  EC50: 13.9 µM (active)
[3]
  CC50: 28.2 µM (active)

## Cc1ccc(S(=O)(=O)N(C)C[C@@H]2Oc3ccc(NC(=O)Cn4cnnn4)cc3CC(=O)N([C@H](C)CO)C[C@@H]2C)cc1
[4]
  AC50: 2.96 µM (active)
[5]
  AC50: 7.7 µM (active)

## Cc1ccc2cc(CCNS(=O)(=O)c3ccc(Br)cc3)c(O)nc2c1C
[7]
  CC50: 22.1 µM (active)

## CCn1c(CNC(=O)c2cccs2)nnc1SCC(=O)NCCc1ccccc1
Aminopeptidase N
  IC50: 90 µM (active)

## O=[N+]([O-])c1ccc(Sc2ccc(Cl)c(Cl)c2)nc1
[6]
  IC50: > 80 µM (inactive)

## CN1CCN(C(=S)SCC(=O)Nc2ccc(Cl)cc2C(=O)c2ccccc2)CC1
Nonstructural protein 1
  IC50: > 100 µM (active)

## CCCCc1nc(NCCNC(=O)c2ccco2)c(C#N)c2c1CSC(C)(C)C2
Aminopeptidase N
  IC50: 85.3 µM (active)
